US10624871B2, “Bismuth(III) compounds and methods thereof” (priority 2016, dated 2020)

Columns and labels:
[1] = test system: E. coli cells (NDM+); assay: Resistance study, mutation frequency and MPC; assay type: cell-based
From the text: Given the very notion of MIC, all susceptible bacterial cells will be suppressed or killed by a dose above it. However, bacterial population is often large; an infection will likely contain first-step mutants with lowed susceptibility. Thus, the dose of compounds at MIC will adversely amplify the population of those less-susceptible mutants.^26 Thus mutant prevention concentration (MPC), defined as a compound concentration that suppresses the growth of first-step resistant mutant in large quantity of susceptible bacterial population, together with mutant prevention index (MPI=MPC/MIC), is introduced to estimate the mutant prevention ability of exemplary compound combination.
For a typical test, E. coli cells (NDM^+) at 1˜2×10^10 CFU were spread onto LB agar containing combinations of MER and CBS at identical concentrations. All the plates were incubated at 37° C. Upon incubation for 48 hrs, up to 4 colonies were picked and re-cultured from any plates with observable colonies, followed by the measurement of their MIC values. Any MICs of MER that were higher than the original values (16 μg mL^−1) were determined as mutant colony. The concentration that restricted the growth of mutant colonies was determined as MPC.

[2] = test system: E. coli (NDM-1+); assay: Murine peritonitis infection model; assay type: in vivo, BALB/c mice; details: MER (5 mg kg^−1) co-administered with CBS (20 mg kg^−1), i.p., day 4 post infection
Description: FIG. 15 is a survival curve showing efficacies in a murine peritonitis infection model. BALB/c mice were infected by a lethal dose of E. coli clinical isolate (NDM-1) via i.p. injection and treated with one dose and 4 h post infection, followed by twice-daily treatment via i.p. injection. Five groups of mice were treated with MER (5 mg kg^−1), CBS (20 mg kg^−1), the combination of MER (5 mg kg^−1) and CBS (20 mg kg^−1), CBS (20 mg kg^−1, in the absence of bacteria) and PBS, respectively. P<0.001, Mantel-Cox test.
Briefly, an overnight culture of E. coli (NDM-1^+) was performed 1:250 dilution in 50 mL LB broth and re-grew to about OD of 0.3 in a 250-mL flask after 2.5 hrs shaking at 37° C., 250 rpm. The resulting bacterial pellets were collected and washed by PBS three times for further use. For bacterial infection, mice (female BALB/c strain, 6-8 weeks of age, 18-22 g of weight) were induced intraperitoneally (i.p.) with a dose of 10^5 CFU bacteria in a 400 μL aliquot of PBS supplemented with 2% mucin. 4 groups of mice were i.p. administered 4 hrs post-infection with a 100 μL aliquot of PBS, MER, CBS and a combination of MER and CBS, respectively. Body weights and mice survival were monitored for endpoint until day 4 post infection.

[3] = target: NDM-1 (Klebsiella pneumoniae, UniProt C7C422); assay: Hydrolysis rates of meropenem by native NDM-1 and Bi-bound NDM-1; assay type: biochemical; set-up: unit not given here; details: MER hydrolysis by Bi-bound NDM-1
[4] = test system: E. coli (NDM-1−); assay: Checkerboard MIC analysis, NDM-1-null strain; assay type: cell-based; details: NDM-1-null E. coli strain
Description: FIGS. 10 (a)-(b) show a heat map of checkerboard MIC analysis over MER and CBS against clinical isolates of (a) E. coli (NDM-1^+) and (b) E. coli (NDM-1^−).
MIC values of either antibiotics or Bi(III) compounds were determined firstly by standard broth micro-dilution method (Clinical and Laboratory Standards Institute (CLSI) M100-S20, 2010). Briefly, bacteria cells were cultured in LB broth overnight at 37° C. at 250 rpm and the optical density was measured at 600 nm (OD600) using a microtiter plate reader. The bacteria density was adjusted to about 1×10^6 CFU mL^−1 and checked by CFU counting on agar plates afterwards. Tested compounds were added triplicately into individual wells of flat-bottomed 96-well plates and performed two-fold serial dilution, followed by addition of prepared bacterial inoculum. […] The MIC was determined as the lowest concentration of compounds that could inhibit the growth of microorganism by both visual reading and OD600 measurement. […]
For the test of drug combination, antibiotics and Bi(III) compounds were co-administrated at concentrations up to 8 times higher than the MIC of the compounds tested alone. […] The FICIs were determined based on the following equation: FICI=FICA+FICB=CA/MICA+CB/MICB where MICA and MICB are the MIC values of compound A and B when functioning alone, and CA and CB are the concentrations of compound A and B at the effective combinations. […]

[5] = test system: Rosetta (DE3) (NDM-1+) bacterial cells; assay: Growth with other β-lactam antibiotics in presence of Bi(III) compounds; assay type: cell-based, E. coli; details: CEF 32 μg mL^−1; CBS 32 or Bi-NAC 16 μg mL^−1
Description: Note that evident restoration of activities of antibiotics was observed. The concentrations used in this test represent are: CBS […], Bi-NAC 16 μg mL^−1, all the antibiotics 32 μg mL^−1. Abbreviation: AMOX: amoxicillin; AMP: ampicillin; NAF: nafcillin; CEF: cefdinir.

[6] = test system: K. pneumonia (NDM-1+); assay: Microdilution MIC and MBC assay, FICI; assay type: cell-based; details: Bi(III) compound at 32 μg mL^−1, K. pneumonia (NDM-1+)
[7] = test system: E. coli (NDM-1+); assay: Microdilution MIC and MBC assay, checkerboard FICI; assay type: cell-based; details: Bi(III) compound at 32 μg mL^−1, E. coli (NDM-1+)

NDM-1, sequence (C7C422 whole entry, looked up): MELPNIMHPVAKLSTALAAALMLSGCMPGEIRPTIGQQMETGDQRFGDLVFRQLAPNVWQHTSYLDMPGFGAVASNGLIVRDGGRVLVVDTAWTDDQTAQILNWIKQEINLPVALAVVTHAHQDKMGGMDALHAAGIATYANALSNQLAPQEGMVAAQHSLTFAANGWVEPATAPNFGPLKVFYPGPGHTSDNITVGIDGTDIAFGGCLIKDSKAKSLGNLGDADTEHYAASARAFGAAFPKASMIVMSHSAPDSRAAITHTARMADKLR

In the case of `O=C([O-])CC([O-])(CC(=O)[O-])C(=O)[O-].O=C([O-])CC([O-])(CC(=O)[O-])C(=O)[O-].[Bi+3].[Bi+3].[K+]` [Complex 10, colloidal bismuth subcitrate], the mutation frequency ([1]; MER with CBS at 32, MIC multiple 0.5) is reported as >5.22 × 10^−8, the mutation frequency ([1]; MER with CBS at 32, MIC multiple 1) is reported as 4.10 × 10^−8 and the mutation frequency ([1]; MER with CBS at 32, MIC multiple 2) is reported as 3.28 × 10^−9. The mutation frequency ([1]; MER with CBS at 64, MIC multiple 0.5) was 1.23 × 10^−8, the mutation frequency ([1]; MER with CBS at 64, MIC multiple 1) was 1.15 × 10^−9 and the mutation frequency ([1]; MER with CBS at 128, MIC multiple 0.5) was 9.84 × 10^−10. The mutation frequency ([1]; MER with CBS at 256, MIC multiple 0.5) was 1.31 × 10^−9, the “survival rate at the endpoint of experiment” value [2] was 50% and the Vmax [3] was 0.26 ± 0.01. The “synergy of MER and CBS in checkerboard MIC” value [4] was “no inhibition was observed”, the “reduction of growth rate of bacterial cells, with CEF” value [5] was 76% and the “MBC of MER with Bi(III) compound” value [6] was 8 µg/mL. The “MIC of MER with Bi(III) compound” value [6] was 4 µg/mL, the “MBC of MER with Bi(III) compound” value [7] was 4 µg/mL and the “MIC of MER with Bi(III) compound” value [7] was 2 µg/mL.
